# Measurements reported in patent US20050009812A1, “Remedies for stress diseases comprising mitochondrial benzodiazepine receptor antagonists” (priority 2001, published 2005).
# What was measured:
# MBR [1] = target: T1, MBR (Rattus norvegicus, UniProt P16257); assay: Receptor binding: [3H]PK11195 binding to rat brain membrane preparation; set-up: The brains without cerebellum were homogenized in ice-cold 50 mmol/L Tris-HCl buffer (pH7.4); from tissue; host or cells: male Wistar rat brain without cerebellum, crude membrane pellet; conditions: competition with [3H]PK11195 1 nmol/L, Cheng & Prusoff
# Experimental: Experiment 1: Receptor Binding
# The affinity of the compound to MBR was determined using rat brain membrane preparation. Male Wistar rats were decapitated. After extirpation of the brain, cerebellum was removed. The brains without cerebellum were homogenized in ice-cold 50 mmol/L Tris-HCl buffer (pH7.4). The homogenate was centrifuged at 12,000 g for 20 min (4° C.), then supernatant was discarded. The residual pellet was washed in the same buffer. The pellet resuspended in 50 mmol/L Tris-HCl buffer (pH7.4) and adjusted to about 1 mg/mL was used as the rat brain membrane preparation for binding assay.
# To determine the amount of non-specific binding, 20 μmol/L of PK11195 was added in place of DMSO and incubate for 1 h. The reaction was terminated by rapid filtration on GF/B filter soaked with 0.3% polyethyleneimine using cell harvester, then the filter was washed twice with 50 mmol/L Tris-HCl buffer (pH7.4). After dried in the oven, the radioactivity on the filer was measured by liquid scintillation counter. The data were analyzed using analysis soft KELL (Ver.6, BIOSOFT).
# To determine the amount of non-specific binding, 20 μmol/L of PK11195 was added in place of DMSO. And to determine the affinity of the invention, 10 pmol/L to 1 μmol/L of the compound dissolved in DMSO was added in place of DMSO. The reaction was terminated as above described, then radioactivity on the filer was measured by liquid scintillation counter. […] The inhibitory constant (Ki value) was derived according to the equation of Cheng & Prusoff (Biochem. Pharmacol., 22, 3099-3108, 1973).
# [2] = tested on: rat adrenocortical mitochondria; assay: Determination of pregnenolone in rat adrenocortical mitochondria; assay type: biochemical; conditions: for pregnenolone content relative to DMSO treated group: final concentration of the compound 1 μmol/L; for Amount of pregnenolone production (%): 10 μmol/L, DMSO assumed 100, n=5; for MBR agonist or antagonist as judged by effect on pregnenolone production: compared with DMSO treated group
# MBR [3] = target: T1, MBR; assay: MBR antagonist activity: FGIN1-27-stimulated pregnenolone production in rat adrenocortical mitochondria; assay type: biochemical; conditions: FGIN1-27 1 nmol/L; MBR antagonist 0.1 pmol/L to 1 μmol/L; FIGS. 1 and 2
# Description: Horizontal axis represents the concentrations of the compound.
# [4] = tested on: stress-loaded male Wistar rats; assay: Anti-stress effect: number of fecal pellets in psychological (water aversive) stress model; assay type: in vivo, rat; conditions: for number of fecal pellets: p.o., male Wistar rats, psychological (water aversive) stress, counted 1 h after start of stress loading, mean ± spread; for number of fecal pellets / effect on stress-induced increase in the number of fecal pellets: n=10/group; for effect on number of fecal pellets vs vehicle (significance, all doses): all tested p.o. doses vs vehicle, stress-loaded male Wistar rats; for effect on stress-induced increase in the number of fecal pellets: oral administration 30 min before stress loading, counted after 1 h
# Experimental: Psychological stress was loaded to male Wistar rats (Brain Res., 641, 21-28 (1994)). Platform was located in the center of the container and water was collected to 10 cm in height. Thirty min after oral administration of vehicle or the compound, stress loading was started. One hour after, number of fecal pellets were counted (n=10/group). The rats without administration and stress-loading rarely defecated in 1 h.
SMILES,Ki (MBR [1]) [nM],number of fecal pellets ([4]; 3 mg/kg),number of fecal pellets ([4]; 30 mg/kg),Amount of pregnenolone production (%) [2] [%],MBR agonist or antagonist as judged by effect on pregnenolone production [2],effect on stress-induced increase in the number of fecal pellets [4],also measured
"O=C(NCc1ccc(F)cc1C(F)(F)F)c1cccc(Cl)c1Cl [1(16), N-(4-fluoro-2-trifluoromethylbenzyl)-2,3-dichlorobenzamide]",0.19,,,,,,
"O=C(NCc1cc(F)ccc1OCc1ccccc1)c1cccc(Cl)c1Cl [1(110), N-(2-benzyloxy-5-fluorobenzyl)-2,3-dichlorobenzamide]",0.22,,,,,,
"Fc1cccc(Cl)c1Cn1nnnc1-c1ccccc1C(F)(F)F [2(14), 1-(2-chloro-6-fluorobenzyl)-5-(2-trifluoromethylphenyl)-1H-1,2,3,4-tetrazole]",3.3,6.6 ± 0.76,5.1 ± 0.78,,,,pregnenolone content relative to DMSO treated group [2]: 0.98 times; antagonistic effect on FGIN1-27-stimulated pregnenolone production (MBR [3]): antagonize the steroid production stimulated by MBR agonist; number of fecal pellets ([4]; 0.3 mg/kg): 6.1 ± 0.82
"Clc1ccc(Cl)c(Cc2nnnn2-c2cccc(Cl)c2Cl)c1 [2(71), 5-(2,5-dichlorobenzyl)-1-(2,3-dichlorophenyl)-1H-1,2,3,4-tetrazole]",0.08,,,,,,
"Clc1cccc(Cc2nnnn2-c2cccc(Cl)c2Cl)c1Cl [2(74), 5-(2,3-dichlorobenzyl)-1-(2,3-dichlorophenyl)-1H-1,2,3,4-tetrazole]",0.16,,,,,,
"Clc1cccc(-c2nnnn2Cc2cc(Cl)ccc2OCc2ccccc2)c1 [2(105), 1-(2-benzyloxy-5-chlorobenzyl)-5-(3-chlorophenyl)-1H-1,2,3,4-tetrazole]",0.73,,,,,,
"CCN(Cc1ccccc1)C(=O)Cn1c(=O)n(C)c2cnc(-c3ccccc3)nc21 [AC-5216, N-benzyl-N-ethyl-2-(7-methyl-8-oxo-2-phenyl-7,8-dihydro-9H-purin-9-yl)acetamide]",,7.5 ± 0.63,9.3 ± 0.94,122.65 ± 7.56,MBR agonists which increase pregnenolone production,did not show an effect,"MBR agonist or antagonist as judged by effect on pregnenolone production ([2]; listed as N-benzyl-N-ethyl-2-(7-methyl-8-oxo-2-phenyl-7,8-dihydro-9H-purin-9-yl)acetamide): MBR antagonist; number of fecal pellets ([4]; 0.3 mg/kg): 9.6 ± 0.74; effect on number of fecal pellets vs vehicle (significance, all doses) [4]: No significant effect in any dose.; effect on stress-induced increase in the number of fecal pellets ([4]; listed as AC-5261): did not produce significant effects"
"CCCN(CCC)C(=O)c1c(-c2ccc(Cl)cc2)nc2cc(Cl)cc(Cl)n12 [CB34, 5,7-dichloro-2-(4-chlorophenyl)-3-dipropylaminocarbonylimidazo[1,2-a]pyridine]",,10.2 ± 0.96,8.6 ± 1.00,131.36 ± 5.38,MBR agonists which increase pregnenolone production,did not produce significant effects,"number of fecal pellets ([4]; 10 mg/kg): 7.6 ± 0.93; effect on number of fecal pellets vs vehicle (significance, all doses) [4]: No significant effect in any dose."
"CCCCCCN(CCCCCC)C(=O)Cc1c(-c2ccc(F)cc2)[nH]c2ccccc12 [FGIN1-27, 2-[2-(4-fluorophenyl)-1H-indole-3-yl]-N,N-dihexylacetamide]",,,,,MBR agonists which increase pregnenolone production,,pregnenolone content relative to DMSO treated group [2]: 1.37 times
"CCC(C)N(C)C(=O)c1cc2ccccc2c(-c2ccccc2Cl)n1 (stereo not shown) [PK11195, 1-(2-chlorophenyl)-N-methyl-N-(1-methylpropyl)-3-isoquinolinecarboxamide]",,6.6 ± 0.97,5.5 ± 0.81,101.82 ± 1.64,MBR antagonists which hardly effect on it,produced significant effects,antagonistic effect on FGIN1-27-stimulated pregnenolone production (MBR [3]): antagonize the steroid production stimulated by MBR agonist; number of fecal pellets ([4]; 0.3 mg/kg): 6.4 ± 0.76
"CN1C(=O)CN=C(c2ccc(Cl)cc2)c2cc(Cl)ccc21 [Ro5-4864, 7-chloro-5-(4-chlorophenyl)-1-methyl-2-oxo-2,3-dihydro-1H-benzodiazepine]",,8.9 ± 1.16,8.6 ± 0.91,123.59 ± 5.41,MBR agonists which increase pregnenolone production,did not produce significant effects,"number of fecal pellets ([4]; 10 mg/kg): 9.2 ± 0.98; effect on number of fecal pellets vs vehicle (significance, all doses) [4]: No significant effect in any dose."
